Assay results taken from ChEMBL document CHEMBL1201862, “PubChem BioAssay data set” (2004).
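Method: 48-hour compound exposure of cells in 96-well plates, five concentrations, linear interpolation of endpoints. At the GI50, growth is halved.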 Calls of active or inactive are those of the source. No stated cut-off is given here; in the data, active = GI50 up to about 1.1 µM and inactive = higher.

Experiments:
Test in all cases: NCI tumour cell line growth inhibition, 48 h
786-0 = system: 786-0
A498 = system: A498
A549 = system: A549
ACHN = system: ACHN
CAKI-1 = system: CAKI-1
CCRF-CEM = system: CCRF-CEM
COLO 205 = system: COLO 205
DMS-114 = system: DMS-114
EKVX = system: EKVX
HCC 2998 = system: HCC 2998
HCT-116 = system: HCT-116
HCT-15 = system: HCT-15
HL-60 = system: HL-60
HOP-18 = system: HOP-18
HOP-62 = system: HOP-62
HOP-92 = system: HOP-92
HT-29 = system: HT-29
IGROV-1 = system: IGROV-1
K562 = system: K562
KM-20L2 = system: KM-20L2
KM12 = system: KM12
LOX IMVI = system: LOX IMVI
LXFL 529 = system: LXFL 529
M14 = system: M14
M19-MEL = system: M19-MEL
MOLT-4 = system: MOLT-4
Malme-3M = system: Malme-3M
NCI-H226 = system: NCI-H226
NCI-H23 = system: NCI-H23
NCI-H460 = system: NCI-H460
NCI-H522 = system: NCI-H522
OVCAR-3 = system: OVCAR-3
OVCAR-4 = system: OVCAR-4
OVCAR-5 = system: OVCAR-5
OVCAR-8 = system: OVCAR-8
RPMI-8226 = system: RPMI-8226
RXF 393 = system: RXF 393
SF-268 = system: SF-268
SF-295 = system: SF-295
SF-539 = system: SF-539
SK-MEL-28 = system: SK-MEL-28
SK-MEL-5 = system: SK-MEL-5
SK-OV-3 = system: SK-OV-3
SN12C = system: SN12C
SNB-19 = system: SNB-19
SNB-75 = system: SNB-75
SW-620 = system: SW-620
TK-10 = system: TK-10
U-251 = system: U-251
UACC-257 = system: UACC-257
UACC-62 = system: UACC-62
UO-31 = system: UO-31
XF498 = system: XF498
DLD-1 = system: DLD-1
DMS-273 = system: DMS-273
SK-MEL-2 = system: SK-MEL-2
SNB-78 = system: SNB-78
SR = system: SR

In the case of `CC(C)=Cc1cc(C(=O)NCCNC(=O)c2cc(C=C(C)C)nc(NC#N)n2)nc(NC#N)n1`, the GI50 (786-0) is reported as > 100 µM (inactive), the GI50 (A498) is reported as > 100 µM (inactive) and the GI50 (A549) is reported as > 100 µM (inactive). For the same compound, the GI50 (ACHN) was > 100 µM (inactive), the GI50 (CAKI-1) was > 100 µM (inactive) and the GI50 (CCRF-CEM) was > 100 µM (inactive). For the same compound, the GI50 (COLO 205) was > 100 µM (inactive), the GI50 (DMS-114) was > 100 µM (inactive) and the GI50 (EKVX) was > 100 µM (inactive). For the same compound, the GI50 (HCC 2998) was > 100 µM (inactive), the GI50 (HCT-116) was > 100 µM (inactive) and the GI50 (HCT-15) was over 100 µM. For the same compound, the GI50 (HL-60) was > 100 µM (inactive), the GI50 (HOP-18) was > 100 µM (inactive) and the GI50 (HOP-62) was > 100 µM (inactive). For the same compound, the GI50 (HOP-92) was > 100 µM (inactive), the GI50 (HT-29) was > 100 µM (inactive) and the GI50 (IGROV-1) was > 100 µM (inactive). For the same compound, the GI50 (K562) was > 100 µM (inactive), the GI50 (KM-20L2) was > 100 µM (inactive) and the GI50 (KM12) was > 100 µM (inactive). The GI50 (LOX IMVI) was > 100 µM (inactive), the GI50 (LXFL 529) was > 100 µM (inactive) and the GI50 (M14) was > 100 µM (inactive). For the same compound, the GI50 (M19-MEL) was > 100 µM (inactive), the GI50 (MOLT-4) was > 100 µM (inactive) and the GI50 (Malme-3M) was > 100 µM (inactive). The GI50 (NCI-H226) was > 100 µM (inactive), the GI50 (NCI-H23) was > 100 µM (inactive) and the GI50 (NCI-H460) was > 100 µM (inactive). The GI50 (NCI-H522) was > 100 µM (inactive), the GI50 (OVCAR-3) was > 100 µM (inactive) and the GI50 (OVCAR-4) was > 100 µM (inactive). The GI50 (OVCAR-5) was > 100 µM (inactive), the GI50 (OVCAR-8) was > 100 µM (inactive) and the GI50 (RPMI-8226) was > 100 µM (inactive). For the same compound, the GI50 (RXF 393) was > 100 µM (inactive), the GI50 (SF-268) was > 100 µM (inactive) and the GI50 (SF-295) was > 100 µM (inactive). For the same compound, the GI50 (SF-539) was > 100 µM (inactive), the GI50 (SK-MEL-28) was > 100 µM (inactive) and the GI50 (SK-MEL-5) was > 100 µM (inactive). The GI50 (SK-OV-3) was > 100 µM (inactive), the GI50 (SN12C) was > 100 µM (inactive) and the GI50 (SNB-19) was > 100 µM (inactive). The GI50 (SNB-75) was > 100 µM (inactive), the GI50 (SW-620) was > 100 µM (inactive) and the GI50 (TK-10) was > 100 µM (inactive). For the same compound, the GI50 (U-251) was > 100 µM (inactive), the GI50 (UACC-257) was > 100 µM (inactive) and the GI50 (UACC-62) was > 100 µM (inactive). The GI50 (UO-31) was > 100 µM (inactive) and the GI50 (XF498) was > 100 µM (inactive).
For `O=[N+]([O-])c1ccc(C2=Nc3ccccc3SC(c3ccccc3)C2)cc1` (centres undefined), the GI50 (A498) was 22.3 µM (inactive), the GI50 (A549) was 20.4 µM (inactive) and the GI50 (ACHN) was 18.2 µM (inactive). The GI50 (CAKI-1) was 17.6 µM (inactive), the GI50 (CCRF-CEM) was 14.7 µM (inactive) and the GI50 (COLO 205) was 17.5 µM (inactive). For the same compound, the GI50 (DLD-1) was 18.9 µM (inactive), the GI50 (DMS-114) was 18.2 µM (inactive) and the GI50 (DMS-273) was 13.3 µM (inactive). The GI50 (EKVX) was 16.6 µM (inactive), the GI50 (HCC 2998) was 15.2 µM (inactive) and the GI50 (HCT-116) was 11.9 µM (inactive). The GI50 (HCT-15) was 16.3 µM, the GI50 (HL-60) was 16.5 µM (inactive) and the GI50 (HOP-62) was 20.7 µM (inactive). The GI50 (IGROV-1) was 16 µM (inactive), the GI50 (K562) was 15.8 µM (inactive) and the GI50 (KM-20L2) was 17.6 µM (inactive). The GI50 (KM12) was 17.1 µM (inactive), the GI50 (LOX IMVI) was 13.7 µM (inactive) and the GI50 (LXFL 529) was 17.8 µM (inactive). The GI50 (M14) was 19.4 µM (inactive), the GI50 (M19-MEL) was 15.4 µM (inactive) and the GI50 (MOLT-4) was 15.1 µM (inactive). The GI50 (NCI-H226) was 21.7 µM (inactive), the GI50 (NCI-H460) was 20.6 µM (inactive) and the GI50 (NCI-H522) was 13.4 µM (inactive). The GI50 (OVCAR-4) was 14.3 µM (inactive), the GI50 (OVCAR-5) was 19.5 µM (inactive) and the GI50 (OVCAR-8) was 20.8 µM (inactive). The GI50 (RPMI-8226) was 14.8 µM (inactive), the GI50 (RXF 393) was 24.6 µM (inactive) and the GI50 (SF-268) was 24.7 µM (inactive). For the same compound, the GI50 (SF-295) was 20.2 µM (inactive), the GI50 (SF-539) was 21.4 µM (inactive) and the GI50 (SK-MEL-28) was 21.3 µM (inactive). For the same compound, the GI50 (SK-MEL-2) was 18.4 µM (inactive), the GI50 (SK-MEL-5) was 18.1 µM (inactive) and the GI50 (SK-OV-3) was 21 µM (inactive). For the same compound, the GI50 (SN12C) was 17 µM (inactive), the GI50 (SNB-19) was 17 µM (inactive) and the GI50 (SNB-75) was 18.1 µM (inactive). The GI50 (SNB-78) was 23.6 µM (inactive), the GI50 (SR) was 18.2 µM (inactive) and the GI50 (SW-620) was 14.5 µM (inactive). For the same compound, the GI50 (TK-10) was 38.1 µM (inactive), the GI50 (U-251) was 13.1 µM (inactive) and the GI50 (UACC-257) was 26.2 µM (inactive). For the same compound, the GI50 (UACC-62) was 13.7 µM (inactive), the GI50 (UO-31) was 12.9 µM (inactive) and the GI50 (XF498) was 17.5 µM (inactive).
